Reference: US20240132431A1, “METHOD FOR ALKYLATING ACIDIC FUNCTIONAL GROUP” (Chugai Seiyaku Kabushiki Kaisha, priority 2021, published 2024)

Target: T1, Bcl-2 protein (Recombinant Human Bcl-2 Protein) (Homo sapiens, UniProt P10415)
T1 construct: purchased Novus NBP2-34889
Assay: Binding evaluation of mixture library compounds to Bcl-2 using AS-MS (affinity selection mass spectrometry)
Conditions: AS-MS, mixture of 1200 compounds, Bcl-2, ASMS Ratio(%)=(A−C)/B×100; for ASMS ratio (%) n = 1: replicate n = 1; for ASMS ratio (%) n = 2: replicate n = 2
How it was run: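 Readout is ASMS Ratio (%), (A−C)/B×100, from reversed-phase LC/MS of SEC-passed extracts, with protein-free unfiltered standard (B) and protein-free SEC blank (C). Recombinant human Bcl-2 at 20 μM final met ~1200 pooled compounds at […] each for 1 h, 23° C., dark, in Tris-HCl pH 7.4 buffer.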

T1 sequence (P10415 whole entry): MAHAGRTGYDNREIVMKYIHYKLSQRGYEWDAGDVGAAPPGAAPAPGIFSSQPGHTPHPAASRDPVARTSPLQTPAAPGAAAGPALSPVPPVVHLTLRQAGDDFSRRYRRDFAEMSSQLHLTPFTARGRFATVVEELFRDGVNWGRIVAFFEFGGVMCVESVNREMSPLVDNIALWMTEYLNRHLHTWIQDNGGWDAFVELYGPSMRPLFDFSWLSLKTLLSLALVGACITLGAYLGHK

| SMILES | ASMS ratio (%) n = 1 [%] | ASMS ratio (%) n = 2 [%] |
| --- | --- | --- |
| CCOc1cccc(-c2ccc(CN3CCN(c4ccc(C(=O)NCC56CC7CC(CC(C7)C5)C6)nn4)CC3)c3ccccc23)c1 [B1A091-01, N-(1-Adamantylmethyl)-6-[4-[[4-(3-ethoxyphenyl)naphthalen-1-yl]methyl]piperazin-1-yl]pyridazine-3-carboxamide] | 0.0 | 15.4 |
| CCOc1cncc(-c2ccc(CN3CCN(c4ccc(C(=O)NCC56CC7CC(CC(C7)C5)C6)nn4)CC3)c3ccccc23)c1 [B1A092-01, N-(1-Adamantylmethyl)-6-[4-[[4-(5-ethoxypyridin-3-yl)naphthalen-1-yl]methyl]piperazin-1-yl]pyridazine-3-carboxamide] | 2.6 | −2.4 |
| CCOc1cccc(-c2csc(CN3CCN(c4ccc(C(=O)NCC56CC7CC(CC(C7)C5)C6)nn4)CC3)c2)c1 [B1A093-01, N-(1-Adamantylmethyl)-6-[4-[[4-(3-ethoxyphenyl)thiophen-2-yl]methyl]piperazin-1-yl]pyridazine-3-carboxamide] | −5.3 | 0.0 |
| CCOc1cncc(-c2csc(CN3CCN(c4ccc(C(=O)NCC56CC7CC(CC(C7)C5)C6)nn4)CC3)c2)c1 [B1A094-01, N-(1-Adamantylmethyl)-6-[4-[[4-(5-ethoxypyridin-3-yl)thiophen-2-yl]methyl]piperazin-1-yl]pyridazine-3-carboxamide] | 6.2 | −0.7 |
| CCOc1cccc(C#Cc2ccccc2CN2CCN(c3ccc(C(=O)NCC45CC6CC(CC(C6)C4)C5)nn3)CC2)c1 [B1A095-01, N-(1-Adamantylmethyl)-6-[4-[[2-[2-(3-ethoxyphenyl)ethynyl]phenyl]methyl]piperazin-1-yl]pyridazine-3-carboxamide] | 0.3 | −17.1 |
| CCOc1cncc(C#Cc2ccccc2CN2CCN(c3ccc(C(=O)NCC45CC6CC(CC(C6)C4)C5)nn3)CC2)c1 [B1A096-01, N-(1-Adamantylmethyl)-6-[4-[[2-[2-(5-ethoxypyridin-3-yl)ethynyl]phenyl]methyl]piperazin-1-yl]pyridazine-3-carboxamide] | 0.0 | 7.4 |
| CCOc1cccc(-c2ccc(C(C)N3CCN(c4ccc(C(=O)NCC56CC7CC(CC(C7)C5)C6)cc4)CC3)cc2)c1 (stereo not drawn) [B1A097-01, N-(1-Adamantylmethyl)-4-[4-[1-[4-(3-ethoxyphenyl)phenyl]ethyl]piperazin-1-yl]benzamide] | 3.2 | 2.5 |
| CCOc1cccc(-c2ccc(C(C)N3CCN(c4ccc(C(=O)NCC56CC7CC(CC(C7)C5)C6)cc4)CC3)c(F)c2)c1 (stereo not drawn) [B1A099-01, N-(1-Adamantylmethyl)-4-[4-[1-[4-(3-ethoxyphenyl)-2-fluorophenyl]ethyl]piperazin-1-yl]benzamide] | 0.9 | −0.9 |
| CCOc1cncc(-c2ccc(C(C)N3CCN(c4ccc(C(=O)NCC56CC7CC(CC(C7)C5)C6)cc4)CC3)c(F)c2)c1 (stereo not drawn) [B1A100-01, N-(1-Adamantylmethyl)-4-[4-[1-[4-(5-ethoxypyridin-3-yl)-2-fluorophenyl]ethyl]piperazin-1-yl]benzamide] | 6.4 | 2.3 |
| CCOc1cccc(-c2csc(C(=O)N3CCN(c4ccc(C(=O)NCC(F)(F)F)nn4)CC3)c2)c1 [B1K001-01, 6-[4-[4-(3-Ethoxyphenyl)thiophene-2-carbonyl]piperazin-1-yl]-N-(2,2,2-trifluoroethyl)pyridazine-3-carboxamide] | 0.0 | 0.0 |
| CCOc1cncc(-c2csc(C(=O)N3CCN(c4ccc(C(=O)NCC(F)(F)F)nn4)CC3)c2)c1 [B1K002-01, 6-[4-[4-(5-Ethoxypyridin-3-yl)thiophene-2-carbonyl]piperazin-1-yl]-N-(2,2,2-trifluoroethyl)pyridazine-3-carboxamide] | 0.0 | 0.0 |
| CCOc1cccc(-c2ccc(C(=O)N3CCN(c4ccc(C(=O)NCC(F)(F)F)nn4)CC3)cc2C)c1 [B1K003-01, 6-[4-[4-(3-Ethoxyphenyl)-3-methylbenzoyl]piperazin-1-yl]-N-(2,2,2-trifluoroethyl)pyridazine-3-carboxamide] | 0.1 | −0.2 |
| CCOc1cncc(-c2ccc(C(=O)N3CCN(c4ccc(C(=O)NCC(F)(F)F)nn4)CC3)cc2C)c1 [B1K004-01, 6-[4-[4-(5-Ethoxypyridin-3-yl)-3-methylbenzoyl]piperazin-1-yl]-N-(2,2,2-trifluoroethyl)pyridazine-3-carboxamide] | 0.0 | 0.6 |
| CCOc1cccc(-c2ccc(C(=O)N3CCN(c4ccc(C(=O)NCC(F)(F)F)nn4)CC3)cc2F)c1 [B1K005-01, 6-[4-[4-(3-Ethoxyphenyl)-3-fluorobenzoyl]piperazin-1-yl]-N-(2,2,2-trifluoroethyl)pyridazine-3-carboxamide] | −0.1 | 0.6 |
| CCOc1cncc(-c2ccc(C(=O)N3CCN(c4ccc(C(=O)NCC(F)(F)F)nn4)CC3)cc2F)c1 [B1K006-01, 6-[4-[4-(5-Ethoxypyridin-3-yl)-3-fluorobenzoyl]piperazin-1-yl]-N-(2,2,2-trifluoroethyl)pyridazine-3-carboxamide] | −0.6 | 0.0 |
| CCOc1cccc(C#Cc2ccccc2C(=O)N2CCN(c3ccc(C(=O)NCC(F)(F)F)nn3)CC2)c1 [B1K007-01, 6-[4-[2-[2-(3-Ethoxyphenyl)ethynyl]benzoyl]piperazin-1-yl]-N-(2,2,2-trifluoroethyl)pyridazine-3-carboxamide] | 0.0 | 1.3 |
| CCOc1cncc(C#Cc2ccccc2C(=O)N2CCN(c3ccc(C(=O)NCC(F)(F)F)nn3)CC2)c1 [B1K008-01, 6-[4-[2-[2-(5-Ethoxypyridin-3-yl)ethynyl]benzoyl]piperazin-1-yl]-N-(2,2,2-trifluoroethyl)pyridazine-3-carboxamide] | 0.0 | 0.0 |
| CCOc1cncc(C#Cc2cncc(C(=O)N3CCN(c4ccc(C(=O)NCC(F)(F)F)nn4)CC3)c2)c1 [B1K010-01, 6-[4-[5-[2-(5-Ethoxypyridin-3-yl)ethynyl]pyridine-3-carbonyl]piperazin-1-yl]-N-(2,2,2-trifluoroethyl)pyridazine-3-carboxamide] | 0.0 | 0.0 |
| CCOc1cccc(-c2ccccc2CCC(=O)N2CCN(c3ccc(C(=O)NCC(F)(F)F)nn3)CC2)c1 [B1K011-01, 6-[4-[3-[2-(3-Ethoxyphenyl)phenyl]propanoyl]piperazin-1-yl]-N-(2,2,2-trifluoroethyl)pyridazine-3-carboxamide] | −0.1 | 0.3 |
| CCOc1cncc(-c2ccccc2CCC(=O)N2CCN(c3ccc(C(=O)NCC(F)(F)F)nn3)CC2)c1 [B1K012-01, 6-[4-[3-[2-(5-Ethoxypyridin-3-yl)phenyl]propanoyl]piperazin-1-yl]-N-(2,2,2-trifluoroethyl)pyridazine-3-carboxamide] | 0.0 | −0.4 |
| CCOc1cccc(-c2ccc(C(=O)N3CCN(c4ccc(C(=O)NCC(F)(F)F)nn4)CC3)c3ccccc23)c1 [B1K013-01, 6-[4-[4-(3-Ethoxyphenyl)naphthalene-1-carbonyl]piperazin-1-yl]-N-(2,2,2-trifluoroethyl)pyridazine-3-carboxamide] | 0.0 | 1.4 |
| CCOc1cncc(-c2ccc(C(=O)N3CCN(c4ccc(C(=O)NCC(F)(F)F)nn4)CC3)c3ccccc23)c1 [B1K014-01, 6-[4-[4-(5-Ethoxypyridin-3-yl)naphthalene-1-carbonyl]piperazin-1-yl]-N-(2,2,2-trifluoroethyl)pyridazine-3-carboxamide] | −0.3 | 0.0 |
| CCOc1cccc(-c2cc(C(=O)N3CCN(c4ccc(C(=O)NCC(F)(F)F)nn4)CC3)cc(C(C)(C)C)c2)c1 [B1K015-01, 6-[4-[3-tert-Butyl-5-(3-ethoxyphenyl)benzoyl]piperazin-1-yl]-N-(2,2,2-trifluoroethyl)pyridazine-3-carboxamide] | 2.9 | −1.8 |
| CCOc1cncc(-c2cc(C(=O)N3CCN(c4ccc(C(=O)NCC(F)(F)F)nn4)CC3)cc(C(C)(C)C)c2)c1 [B1K016-01, 6-[4-[3-tert-Butyl-5-(5-ethoxypyridin-3-yl)benzoyl]piperazin-1-yl]-N-(2,2,2-trifluoroethyl)pyridazine-3-carboxamide] | 0.0 | 0.0 |
| CCOc1cccc(-c2cc(C(=O)N3CCN(c4ccc(C(=O)NCC(F)(F)F)nn4)CC3)cc(C(F)(F)F)c2)c1 [B1K017-01, 6-[4-[3-(3-Ethoxyphenyl)-5-(trifluoromethyl)benzoyl]piperazin-1-yl]-N-(2,2,2-trifluoroethyl)pyridazine-3-carboxamide] | 0.0 | 0.0 |
| CCOc1cncc(-c2cc(C(=O)N3CCN(c4ccc(C(=O)NCC(F)(F)F)nn4)CC3)cc(C(F)(F)F)c2)c1 [B1K018-01, 6-[4-[3-(5-Ethoxypyridin-3-yl)-5-(trifluoromethyl)benzoyl]piperazin-1-yl]-N-(2,2,2-trifluoroethyl)pyridazine-3-carboxamide] | −0.6 | 0.5 |
| CCOc1cccc(C#Cc2cc(C(=O)N3CCN(c4ccc(C(=O)NCC(F)(F)F)nn4)CC3)cc(C(F)(F)F)c2)c1 [B1K019-01, 6-[4-[3-[2-(3-Ethoxyphenyl)ethynyl]-5-(trifluoromethyl)benzoyl]piperazin-1-yl]-N-(2,2,2-trifluoroethyl)pyridazine-3-carboxamide] | 0.0 | 0.0 |
